Format in all cases: functional
For one assay, the system named is Klebsiella pneumoniae. As to the kind of experiment: Antibacterial activity against clinical Klebsiella pneumoniae AB 356 assessed as growth inhibition after 24 hr by two-fold serial dilution method. The conditions noted are these: AB 356, 24 h.
The subject of assay [1] is Staphylococcus aureus. As to the kind of experiment: Antibacterial activity against methicillin-sensitive Staphylococcus aureus ATCC 29213 assessed as growth inhibition after 24 hr by two-fold serial dilution method. Particulars: ATCC 29213, 24 h.
For another assay, the system named is Moraxella catarrhalis. Briefly: Antibacterial activity against Moraxella catarrhalis ATCC 25238 assessed as growth inhibition after 24 hr by two-fold serial dilution method. Particulars: ATCC 25238, 24 h.
In assay [2] the test system is Staphylococcus aureus. As to the kind of experiment: Antibacterial activity against Methicillin-resistant Staphylococcus aureus ATCC 33591 assessed as growth inhibition after 24 hr by two-fold serial dilution method. The conditions noted are these: ATCC 33591, 24 h.
Another assay has as its system Enterococcus faecalis. Briefly: Antibacterial activity against Vancomycin-resistant Enterococcus faecalis ATCC 700802 assessed as growth inhibition after 24 hr by two-fold serial dilution method. The conditions noted are these: ATCC 700802, 24 h.
In another assay the test system is Acinetobacter baumannii. Briefly: Antibacterial activity against Acinetobacter baumannii BAA 747 assessed as growth inhibition after 24 hr by two-fold serial dilution method. The conditions noted are these: BAA 747, 24 h.

Converted amounts (≈) assume the structure as drawn.

As usually defined, the MIC is the lowest concentration found to suppress growth. `O=C(O)c1cn(C2CC2)c2cc(-n3cc(CNC4CCCCCC4)nn3)c(F)cc2c1=O`: the MIC stood at 16 µg/mL (≈ 36.4 µM) in the assay with Klebsiella pneumoniae; 32 µg/mL (≈ 72.8 µM) in the assay with Staphylococcus aureus [1]; 8 µg/mL (≈ 18.2 µM) in the assay with Moraxella catarrhalis; 32 µg/mL (≈ 72.8 µM) with Staphylococcus aureus [2]; 32 µg/mL (≈ 72.8 µM) with Enterococcus faecalis; 16 µg/mL (≈ 36.4 µM) in the assay with Acinetobacter baumannii.

`O=C(O)c1cn(C2CC2)c2cc(-n3cc(CNc4ccccc4)nn3)c(F)cc2c1=O`: the minimum inhibitory concentration (MIC) in the assay on Klebsiella pneumoniae turned out to be 1 µg/mL (≈ 2.38 µM); in the assay with Staphylococcus aureus [1] it was 0.25 µg/mL (≈ 0.596 µM); in the assay with Moraxella catarrhalis it was 0.125 µg/mL (≈ 0.298 µM); in the assay on Staphylococcus aureus [2], 0.5 µg/mL (≈ 1.19 µM); in the assay on Enterococcus faecalis, 2 µg/mL (≈ 4.77 µM); in the assay on Acinetobacter baumannii, 1 µg/mL (≈ 2.38 µM).

Regarding `O=C(O)c1cn(C2CC2)c2cc(-n3cc(CNc4ccc(F)cc4)nn3)c(F)cc2c1=O`, the MIC was 2 µg/mL (≈ 4.57 µM) in the assay on Klebsiella pneumoniae; 0.25 µg/mL (≈ 0.572 µM) with Staphylococcus aureus [1]; 0.25 µg/mL (≈ 0.572 µM) with Moraxella catarrhalis; 1 µg/mL (≈ 2.29 µM) in the assay on Staphylococcus aureus [2]; 4 µg/mL (≈ 9.14 µM) in the assay with Enterococcus faecalis; 2 µg/mL (≈ 4.57 µM) in the assay with Acinetobacter baumannii.

For the compound `O=C(O)c1cn(C2CC2)c2cc(-n3cc(CNc4ccc(Cl)cc4)nn3)c(F)cc2c1=O`, the MIC was 1 µg/mL (≈ 2.2 µM) in the assay on Klebsiella pneumoniae; 0.25 µg/mL (≈ 0.551 µM) in the assay with Staphylococcus aureus [1]; 0.125 µg/mL (≈ 0.275 µM) in the assay with Moraxella catarrhalis; 0.25 µg/mL (≈ 0.551 µM) with Staphylococcus aureus [2]; 1 µg/mL (≈ 2.2 µM) with Enterococcus faecalis; 0.5 µg/mL (≈ 1.1 µM) in the assay on Acinetobacter baumannii.

For the compound `COc1ccc(NCc2cn(-c3cc4c(cc3F)c(=O)c(C(=O)O)cn4C3CC3)nn2)cc1`, the MIC turned out to be 4 µg/mL (≈ 8.9 µM) in the assay on Klebsiella pneumoniae; 0.5 µg/mL (≈ 1.11 µM) in the assay with Staphylococcus aureus [1]; 0.5 µg/mL (≈ 1.11 µM) in the assay on Moraxella catarrhalis; 0.5 µg/mL (≈ 1.11 µM) with Staphylococcus aureus [2]; 2 µg/mL (≈ 4.45 µM) in the assay on Enterococcus faecalis; 8 µg/mL (≈ 17.8 µM) in the assay on Acinetobacter baumannii.

Turning to `Cc1ccc(NCc2cn(-c3cc4c(cc3F)c(=O)c(C(=O)O)cn4C3CC3)nn2)cc1`, the MIC in the assay on Klebsiella pneumoniae came to 4 µg/mL (≈ 9.23 µM); in the assay with Staphylococcus aureus [1] it was 0.5 µg/mL (≈ 1.15 µM); in the assay with Moraxella catarrhalis it was 0.125 µg/mL (≈ 0.288 µM); in the assay with Staphylococcus aureus [2] it was 0.5 µg/mL (≈ 1.15 µM); with Enterococcus faecalis, 2 µg/mL (≈ 4.61 µM); in the assay with Acinetobacter baumannii, 8 µg/mL (≈ 18.5 µM).

On to `O=C(O)c1cn(C2CC2)c2cc(-n3cc(CNCc4ccccc4)nn3)c(F)cc2c1=O`, for which the minimum inhibitory concentration (MIC) was 1 µg/mL (≈ 2.31 µM) in the assay on Klebsiella pneumoniae; 2 µg/mL (≈ 4.61 µM) in the assay with Staphylococcus aureus [1]; 1 µg/mL (≈ 2.31 µM) in the assay with Moraxella catarrhalis; 2 µg/mL (≈ 4.61 µM) in the assay on Staphylococcus aureus [2]; 4 µg/mL (≈ 9.23 µM) in the assay with Enterococcus faecalis; 8 µg/mL (≈ 18.5 µM) with Acinetobacter baumannii.

For `O=C(O)c1cn(C2CC2)c2cc(-n3cc(CNCc4ccc(F)cc4)nn3)c(F)cc2c1=O`, the MIC amounted to 2 µg/mL (≈ 4.43 µM) in the assay on Klebsiella pneumoniae; 2 µg/mL (≈ 4.43 µM) in the assay with Staphylococcus aureus [1]; 1 µg/mL (≈ 2.22 µM) with Moraxella catarrhalis; 2 µg/mL (≈ 4.43 µM) in the assay with Staphylococcus aureus [2]; 4 µg/mL (≈ 8.86 µM) with Enterococcus faecalis; 8 µg/mL (≈ 17.7 µM) with Acinetobacter baumannii.

For `O=C(O)c1cn(C2CC2)c2cc(-n3cc(Cn4ccnc4)nn3)c(F)cc2c1=O`, the minimal inhibitory concentration (MIC) is 32 µg/mL (≈ 81.1 µM) in the assay on Klebsiella pneumoniae; 32 µg/mL (≈ 81.1 µM) in the assay with Staphylococcus aureus [1]; 8 µg/mL (≈ 20.3 µM) in the assay on Moraxella catarrhalis; 32 µg/mL (≈ 81.1 µM) with Staphylococcus aureus [2]; 32 µg/mL (≈ 81.1 µM) in the assay on Enterococcus faecalis; 32 µg/mL (≈ 81.1 µM) in the assay with Acinetobacter baumannii.

On to `CN(C)Cc1cn(-c2cc3c(cc2F)c(=O)c(C(=O)O)cn3C2CC2)nn1`, for which the minimum inhibitory concentration (MIC) with Klebsiella pneumoniae is 2 µg/mL (≈ 5.39 µM); in the assay with Staphylococcus aureus [1] it was 4 µg/mL (≈ 10.8 µM); in the assay with Moraxella catarrhalis, 1 µg/mL (≈ 2.69 µM); with Staphylococcus aureus [2] it was 8 µg/mL (≈ 21.5 µM); in the assay with Enterococcus faecalis, 16 µg/mL (≈ 43.1 µM); with Acinetobacter baumannii, 8 µg/mL (≈ 21.5 µM).

For `CCN(CC)Cc1cn(-c2cc3c(cc2F)c(=O)c(C(=O)O)cn3C2CC2)nn1`, the minimum inhibitory concentration (MIC) came out at 16 µg/mL (≈ 40.1 µM) with Klebsiella pneumoniae; 8 µg/mL (≈ 20 µM) in the assay with Staphylococcus aureus [1]; 16 µg/mL (≈ 40.1 µM) in the assay on Moraxella catarrhalis; 32 µg/mL (≈ 80.1 µM) in the assay on Staphylococcus aureus [2]; 32 µg/mL (≈ 80.1 µM) in the assay on Enterococcus faecalis; 16 µg/mL (≈ 40.1 µM) in the assay on Acinetobacter baumannii.

In the case of `CCCN(CCC)Cc1cn(-c2cc3c(cc2F)c(=O)c(C(=O)O)cn3C2CC2)nn1`, the MIC with Klebsiella pneumoniae is 8 µg/mL (≈ 18.7 µM); in the assay on Staphylococcus aureus [1] it was 8 µg/mL (≈ 18.7 µM); with Moraxella catarrhalis it was 2 µg/mL (≈ 4.68 µM); in the assay with Staphylococcus aureus [2], 32 µg/mL (≈ 74.9 µM); in the assay on Enterococcus faecalis it was 32 µg/mL (≈ 74.9 µM); with Acinetobacter baumannii it was 16 µg/mL (≈ 37.4 µM).

With `O=C(O)c1cn(C2CC2)c2cc(-n3cc(CN4CCCC4)nn3)c(F)cc2c1=O`, the minimum inhibitory concentration (MIC) with Klebsiella pneumoniae is 2 µg/mL (≈ 5.03 µM); with Staphylococcus aureus [1], 2 µg/mL (≈ 5.03 µM); in the assay with Moraxella catarrhalis, 1 µg/mL (≈ 2.52 µM); in the assay on Staphylococcus aureus [2] it was 8 µg/mL (≈ 20.1 µM); in the assay with Enterococcus faecalis it was 16 µg/mL (≈ 40.3 µM); in the assay on Acinetobacter baumannii, 8 µg/mL (≈ 20.1 µM).

Turning to `O=C(O)c1cn(C2CC2)c2cc(-n3cc(CN4CCCCC4)nn3)c(F)cc2c1=O`, the minimum inhibitory concentration (MIC) in the assay on Klebsiella pneumoniae is 2 µg/mL (≈ 4.86 µM); with Staphylococcus aureus [1] it was 4 µg/mL (≈ 9.72 µM); in the assay with Moraxella catarrhalis, 1 µg/mL (≈ 2.43 µM); with Staphylococcus aureus [2] it was 16 µg/mL (≈ 38.9 µM); with Enterococcus faecalis, 16 µg/mL (≈ 38.9 µM); in the assay with Acinetobacter baumannii, 8 µg/mL (≈ 19.4 µM).

`O=C(O)c1cn(C2CC2)c2cc(-n3cc(CN4CCOCC4)nn3)c(F)cc2c1=O`: the MIC in the assay on Klebsiella pneumoniae worked out at 16 µg/mL (≈ 38.7 µM); in the assay with Staphylococcus aureus [1] it was 8 µg/mL (≈ 19.4 µM); in the assay with Moraxella catarrhalis, 4 µg/mL (≈ 9.68 µM); in the assay with Staphylococcus aureus [2] it was 16 µg/mL (≈ 38.7 µM); in the assay with Enterococcus faecalis, 16 µg/mL (≈ 38.7 µM); with Acinetobacter baumannii, 16 µg/mL (≈ 38.7 µM).

As to `O=C(O)c1cn(C2CC2)c2cc(-n3cc(CN4CCNCC4)nn3)c(F)cc2c1=O`, the minimum inhibitory concentration (MIC) in the assay on Klebsiella pneumoniae was found to be 8 µg/mL (≈ 19.4 µM); with Staphylococcus aureus [1], 16 µg/mL (≈ 38.8 µM); in the assay with Moraxella catarrhalis it was 8 µg/mL (≈ 19.4 µM); in the assay with Staphylococcus aureus [2], 16 µg/mL (≈ 38.8 µM); with Enterococcus faecalis it was 32 µg/mL (≈ 77.6 µM); in the assay on Acinetobacter baumannii, 32 µg/mL (≈ 77.6 µM).

For the compound `CC(C)NCc1cn(-c2cc3c(cc2F)c(=O)c(C(=O)O)cn3C2CC2)nn1`, the MIC with Klebsiella pneumoniae worked out at 4 µg/mL (≈ 10.4 µM); in the assay with Staphylococcus aureus [1], 16 µg/mL (≈ 41.5 µM); in the assay with Moraxella catarrhalis, 1 µg/mL (≈ 2.59 µM); with Staphylococcus aureus [2] it was 16 µg/mL (≈ 41.5 µM); in the assay with Enterococcus faecalis, 16 µg/mL (≈ 41.5 µM); in the assay with Acinetobacter baumannii it was 16 µg/mL (≈ 41.5 µM).

As for `O=C(O)c1cn(C2CC2)c2cc(-n3cc(CNC4CC4)nn3)c(F)cc2c1=O`, the minimum inhibitory concentration (MIC) amounted to 32 µg/mL (≈ 83.5 µM) in the assay with Klebsiella pneumoniae; 16 µg/mL (≈ 41.7 µM) in the assay with Staphylococcus aureus [1]; 32 µg/mL (≈ 83.5 µM) in the assay with Moraxella catarrhalis; 16 µg/mL (≈ 41.7 µM) with Staphylococcus aureus [2]; 16 µg/mL (≈ 41.7 µM) in the assay with Enterococcus faecalis; 32 µg/mL (≈ 83.5 µM) with Acinetobacter baumannii.

For the compound `O=C(O)c1cn(C2CC2)c2cc(-n3cc(CNC4CCCC4)nn3)c(F)cc2c1=O`, the MIC worked out at 4 µg/mL (≈ 9.72 µM) with Klebsiella pneumoniae; 16 µg/mL (≈ 38.9 µM) in the assay with Staphylococcus aureus [1]; 1 µg/mL (≈ 2.43 µM) with Moraxella catarrhalis; 16 µg/mL (≈ 38.9 µM) in the assay on Staphylococcus aureus [2]; 16 µg/mL (≈ 38.9 µM) in the assay on Enterococcus faecalis; 16 µg/mL (≈ 38.9 µM) in the assay on Acinetobacter baumannii.

For `O=C(O)c1cn(C2CC2)c2cc(-n3cc(CNC4CCCCC4)nn3)c(F)cc2c1=O`, the MIC with Klebsiella pneumoniae was determined as 2 µg/mL (≈ 4.7 µM); in the assay with Staphylococcus aureus [1] it was 16 µg/mL (≈ 37.6 µM); in the assay on Moraxella catarrhalis it was 1 µg/mL (≈ 2.35 µM); in the assay on Staphylococcus aureus [2] it was 32 µg/mL (≈ 75.2 µM); with Enterococcus faecalis, 32 µg/mL (≈ 75.2 µM); with Acinetobacter baumannii, 8 µg/mL (≈ 18.8 µM).

Consider `O=C(O)c1cn(C2CC2)c2cc(N3CCNCC3)c(F)cc2c1=O` [CIPROFLOXACIN], for which the MIC in the assay on Staphylococcus aureus [1] came out at 0.5 µg/mL (≈ 1.51 µM); with Moraxella catarrhalis it was 0.25 µg/mL (≈ 0.754 µM); in the assay with Staphylococcus aureus [2], 0.5 µg/mL (≈ 1.51 µM); in the assay with Enterococcus faecalis, 0.5 µg/mL (≈ 1.51 µM); in the assay with Acinetobacter baumannii, 0.5 µg/mL (≈ 1.51 µM).

On to `CC(=O)NC[C@H]1CN(c2ccc(N3CCOCC3)c(F)c2)C(=O)O1` [LINEZOLID], for which the minimal inhibitory concentration (MIC) was above 32 µg/mL in the assay on Klebsiella pneumoniae, 4 µg/mL (≈ 11.9 µM) with Moraxella catarrhalis and above 32 µg/mL in the assay on Acinetobacter baumannii.
